Test results published in PubChem BioAssay AID1963443 (Molecular Pharmacology Branch, DTP, NCI, 2024).

System: MDA-MB-231 complex spheroids, growth inhibition
Experiment: Anticancer human tumor MDA-MB-231 cell line growth inhibition [Asc];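 further: spheroids exposed to compounds for 7 days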
Conditions: for IC50: curve of first compound; for viability, T/C: stronger effect = lower value
Procedure, shortened: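 Tumor cells were grown as multicellular spheroids with stromal HUVEC and mesenchymal stem cells and treated singly or in combination. Concentrations fell in half-log steps from the clinical Cmax, or from 10 microM where none was known.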

[1] = second compound 0.03 µM, first compound 0.00316 µM
[2] = second compound 0.03 µM, first compound 0.01 µM
[3] = second compound 0.03 µM, first compound 0.0316 µM
[4] = second compound 0.03 µM, first compound 0.1 µM
[5] = second compound 0.0949 µM, first compound 0.00316 µM
[6] = second compound 0.0949 µM, first compound 0.01 µM
[7] = second compound 0.0949 µM, first compound 0.0316 µM
[8] = second compound 0.0949 µM, first compound 0.1 µM
[9] = second compound 0.3 µM, first compound 0.00316 µM
[10] = second compound 0.3 µM, first compound 0.01 µM
[11] = second compound 0.3 µM, first compound 0.0316 µM
[12] = second compound 0.3 µM, first compound 0.1 µM
[13] = second compound 0.949 µM, first compound 0.00316 µM
[14] = second compound 0.949 µM, first compound 0.01 µM
[15] = second compound 0.949 µM, first compound 0.0316 µM
[16] = second compound 0.949 µM, first compound 0.1 µM
[17] = second compound 3 µM, first compound 0.00316 µM
[18] = second compound 3 µM, first compound 0.01 µM
[19] = second compound 3 µM, first compound 0.0316 µM
[20] = second compound 3 µM, first compound 0.1 µM

## Cn1ncnc1[C@H]1c2n[nH]c(=O)c3cc(F)cc(c23)N[C@@H]1c1ccc(F)cc1 + CCN1C(C(=O)NC23CCC(C(=O)O)(CC2)CC3)C(c2cccc(Cl)c2F)C2(C(=O)Nc3cc(Cl)ccc32)C12CCCCC2
Second compound 0.03 µM
  IC50: > 100 nM
Second compound 0.0949 µM
  IC50: > 100 nM
Second compound 0.3 µM
  IC50: > 100 nM
Second compound 0.949 µM
  IC50: > 100 nM
Second compound 3 µM
  IC50: > 100 nM
Second compound 0.03 µM, first compound 0.000316 µM
  viability, T/C: 101%
Second compound 0.03 µM, first compound 0.001 µM
  viability, T/C: 96.3%
[1]
  viability, T/C: 90.4%
[2]
  viability, T/C: 96.2%
[3]
  viability, T/C: 85%
[4]
  viability, T/C: 86%
Second compound 0.0949 µM, first compound 0.000316 µM
  viability, T/C: 112%
Second compound 0.0949 µM, first compound 0.001 µM
  viability, T/C: 101%
[5]
  viability, T/C: 93.6%
[6]
  viability, T/C: 95.9%
[7]
  viability, T/C: 90.2%
[8]
  viability, T/C: 88.4%
Second compound 0.3 µM, first compound 0.000316 µM
  viability, T/C: 110%
Second compound 0.3 µM, first compound 0.001 µM
  viability, T/C: 110%
[9]
  viability, T/C: 98.5%
[10]
  viability, T/C: 102%
[11]
  viability, T/C: 89.8%
[12]
  viability, T/C: 85.4%
Second compound 0.949 µM, first compound 0.000316 µM
  viability, T/C: 108%
Second compound 0.949 µM, first compound 0.001 µM
  viability, T/C: 109%
[13]
  viability, T/C: 102%
[14]
  viability, T/C: 97.8%
[15]
  viability, T/C: 93.6%
[16]
  viability, T/C: 91.8%
Second compound 3 µM, first compound 0.000316 µM
  viability, T/C: 100%
Second compound 3 µM, first compound 0.001 µM
  viability, T/C: 99.4%
[17]
  viability, T/C: 94.4%
[18]
  viability, T/C: 91.8%
[19]
  viability, T/C: 82%
[20]
  viability, T/C: 87.8%

## COc1c(OCCCN2CCOCC2)ccc2c3n(c(=NC(=O)c4cnc(N)nc4)nc12)CCN3 + CCN1C(C(=O)NC23CCC(C(=O)O)(CC2)CC3)C(c2cccc(Cl)c2F)C2(C(=O)Nc3cc(Cl)ccc32)C12CCCCC2
Second compound 0.03 µM
  IC50: 81.4 nM
Second compound 0.0949 µM
  IC50: 79.3 nM
Second compound 0.3 µM
  IC50: 86.9 nM
Second compound 0.949 µM
  IC50: 90.8 nM
Second compound 3 µM
  IC50: 31.4 nM
[1]
  viability, T/C: 87.7%
[2]
  viability, T/C: 81.5%
[3]
  viability, T/C: 61.5%
[4]
  viability, T/C: 49.7%
Second compound 0.03 µM, first compound 0.316 µM
  viability, T/C: 34.6%
Second compound 0.03 µM, first compound 1 µM
  viability, T/C: 33.8%
[5]
  viability, T/C: 102%
[6]
  viability, T/C: 78.7%
[7]
  viability, T/C: 63.4%
[8]
  viability, T/C: 47.8%
Second compound 0.0949 µM, first compound 0.316 µM
  viability, T/C: 34.3%
Second compound 0.0949 µM, first compound 1 µM
  viability, T/C: 32.3%
[9]
  viability, T/C: 99.3%
[10]
  viability, T/C: 88.2%
[11]
  viability, T/C: 65.2%
[12]
  viability, T/C: 49.9%
Second compound 0.3 µM, first compound 0.316 µM
  viability, T/C: 34.7%
Second compound 0.3 µM, first compound 1 µM
  viability, T/C: 33.5%
[13]
  viability, T/C: 100%
[14]
  viability, T/C: 85.9%
[15]
  viability, T/C: 66.4%
[16]
  viability, T/C: 49%
Second compound 0.949 µM, first compound 0.316 µM
  viability, T/C: 37%
Second compound 0.949 µM, first compound 1 µM
  viability, T/C: 34.1%
[17]
  viability, T/C: 83.3%
[18]
  viability, T/C: 67.6%
[19]
  viability, T/C: 50.1%
[20]
  viability, T/C: 39.3%
Second compound 3 µM, first compound 0.316 µM
  viability, T/C: 31.2%
Second compound 3 µM, first compound 1 µM
  viability, T/C: 34.1%
